# What was measured:
# [1] = target: T1, AChE (acetylcholinesterase) (Electrophorus electricus, UniProt O42275); assay: Ellman assay, […] nm, microplate; assay type: biochemical; conditions: read-out: IC50 (μg.mL^-1) (converted)
# T1 construct: native enzyme isolated from electric eel, type VI-S (printed 'type VIS')
# [2] = target: T2, BuChE (butyrylcholinesterase) (Equus caballus, UniProt P81908); assay: Ellman assay, […] nm, microplate; assay type: biochemical; conditions: read-out: IC50 (μg.mL^-1) (converted)
# T2 construct: gene BCHE; native enzyme isolated from horse serum
# T2 sequence (P81908 whole entry): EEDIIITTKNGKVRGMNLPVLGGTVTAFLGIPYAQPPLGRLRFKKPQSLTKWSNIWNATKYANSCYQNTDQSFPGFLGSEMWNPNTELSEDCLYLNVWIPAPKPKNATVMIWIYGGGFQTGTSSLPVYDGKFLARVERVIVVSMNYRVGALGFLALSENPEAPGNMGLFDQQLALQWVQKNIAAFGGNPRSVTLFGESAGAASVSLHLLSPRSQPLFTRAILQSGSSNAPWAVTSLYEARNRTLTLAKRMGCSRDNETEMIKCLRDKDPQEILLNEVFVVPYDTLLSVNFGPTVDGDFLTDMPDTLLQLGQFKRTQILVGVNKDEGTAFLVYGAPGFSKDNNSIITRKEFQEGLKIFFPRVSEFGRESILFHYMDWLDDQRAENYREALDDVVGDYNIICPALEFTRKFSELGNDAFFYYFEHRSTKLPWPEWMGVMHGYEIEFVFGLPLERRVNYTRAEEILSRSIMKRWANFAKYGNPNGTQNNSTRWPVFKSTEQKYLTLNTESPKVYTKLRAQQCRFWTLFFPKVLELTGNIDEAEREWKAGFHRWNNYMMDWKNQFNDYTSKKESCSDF
# T1 sequence (O42275 24-633): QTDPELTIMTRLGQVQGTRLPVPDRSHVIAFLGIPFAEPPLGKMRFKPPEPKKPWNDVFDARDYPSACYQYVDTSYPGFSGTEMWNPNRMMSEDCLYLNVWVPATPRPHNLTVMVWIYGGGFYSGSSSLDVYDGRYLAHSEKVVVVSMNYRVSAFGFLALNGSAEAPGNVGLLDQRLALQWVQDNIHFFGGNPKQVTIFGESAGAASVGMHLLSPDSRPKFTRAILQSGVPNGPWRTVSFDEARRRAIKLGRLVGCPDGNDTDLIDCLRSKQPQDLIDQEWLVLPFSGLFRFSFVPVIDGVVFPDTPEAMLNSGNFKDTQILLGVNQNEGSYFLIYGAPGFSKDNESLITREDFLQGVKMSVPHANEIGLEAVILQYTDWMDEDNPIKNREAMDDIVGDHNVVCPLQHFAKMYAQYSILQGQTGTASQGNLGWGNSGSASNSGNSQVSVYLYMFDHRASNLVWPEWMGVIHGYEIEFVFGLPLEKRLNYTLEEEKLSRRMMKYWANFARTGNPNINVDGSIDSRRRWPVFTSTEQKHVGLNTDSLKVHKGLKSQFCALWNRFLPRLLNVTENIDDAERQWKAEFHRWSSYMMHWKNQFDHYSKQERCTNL
structure (smiles),measurement,setting,value
COc1cc(/C=C/C(=O)O)ccc1O [ferulic acid],IC50,[1],2.1 mM
same,IC50,[2],2.68 mM
